Measured values as given in BigSolDB 2.1.

N#CCc1ccc([N+](=O)[O-])cc1
Conditions | solubility (mole fraction)
in 1,4-dioxane, 288.15 K | 0.0461
in 1,4-dioxane, 293.15 K | 0.0567
in 1,4-dioxane, 298.15 K | 0.0715
in 1,4-dioxane, 303.15 K | 0.0888
in 1,4-dioxane, 308.15 K | 0.109
in 1,4-dioxane, 313.15 K | 0.134
in 1,4-dioxane, 318.15 K | 0.161
in 1,4-dioxane, 323.15 K | 0.193
in 1,4-dioxane, 328.15 K | 0.232
in 1,4-dioxane, 333.15 K | 0.283
in 2-butanone, 278.15 K | 0.0458
in 2-butanone, 283.15 K | 0.0534
in 2-butanone, 288.15 K | 0.0617
in 2-butanone, 293.15 K | 0.0717
in 2-butanone, 298.15 K | 0.0828
in 2-butanone, 303.15 K | 0.0953
in 2-butanone, 308.15 K | 0.109
in 2-butanone, 313.15 K | 0.126
in 2-butanone, 318.15 K | 0.144
in 2-butanone, 323.15 K | 0.166
in 2-butanone, 328.15 K | 0.189
in 2-butanone, 333.15 K | 0.216
in acetic acid, 293.15 K | 0.014
in acetic acid, 298.15 K | 0.0166
in acetic acid, 303.15 K | 0.0195
in acetic acid, 308.15 K | 0.0231
in acetic acid, 313.15 K | 0.0272
in acetic acid, 318.15 K | 0.0319
in acetic acid, 323.15 K | 0.0375
in acetic acid, 328.15 K | 0.0438
in acetic acid, 333.15 K | 0.0516
in acetone, 278.15 K | 0.057
in acetone, 283.15 K | 0.0658
in acetone, 288.15 K | 0.0753
in acetone, 293.15 K | 0.0859
in acetone, 298.15 K | 0.0974
in acetone, 303.15 K | 0.111
in acetone, 308.15 K | 0.126
in acetone, 313.15 K | 0.143
in acetone, 318.15 K | 0.162
in acetone, 323.15 K | 0.183
in acetone, 328.15 K | 0.206
in acetonitrile, 278.15 K | 0.0361
in acetonitrile, 283.15 K | 0.0437
in acetonitrile, 288.15 K | 0.0519
in acetonitrile, 293.15 K | 0.0628
in acetonitrile, 298.15 K | 0.0749
in acetonitrile, 303.15 K | 0.0899
in acetonitrile, 308.15 K | 0.105
in acetonitrile, 313.15 K | 0.124
in acetonitrile, 318.15 K | 0.145
in acetonitrile, 323.15 K | 0.169
in acetonitrile, 328.15 K | 0.196
in acetonitrile, 333.15 K | 0.228
in cyclohexane, 283.15 K | 9.17e-05
in cyclohexane, 288.15 K | 0.000111
in cyclohexane, 293.15 K | 0.000134
in cyclohexane, 298.15 K | 0.000166
in cyclohexane, 303.15 K | 0.000209
in cyclohexane, 308.15 K | 0.000258
in cyclohexane, 313.15 K | 0.000327
in cyclohexane, 318.15 K | 0.000409
in cyclohexane, 323.15 K | 0.000505
in cyclohexane, 328.15 K | 0.000639
in cyclohexane, 333.15 K | 0.000822
in ethanol, 278.15 K | 0.00183
in ethanol, 283.15 K | 0.00223
in ethanol, 288.15 K | 0.00279
in ethanol, 293.15 K | 0.00352
in ethanol, 298.15 K | 0.0043
in ethanol, 303.15 K | 0.00536
in ethanol, 308.15 K | 0.00654
in ethanol, 313.15 K | 0.00788
in ethanol, 318.15 K | 0.00986
in ethanol, 323.15 K | 0.0122
in ethanol, 328.15 K | 0.0149
in ethanol, 333.15 K | 0.0178
in ethyl acetate, 278.15 K | 0.122
in ethyl acetate, 283.15 K | 0.13
in ethyl acetate, 288.15 K | 0.14
in ethyl acetate, 293.15 K | 0.149
in ethyl acetate, 298.15 K | 0.159
in ethyl acetate, 303.15 K | 0.17
in ethyl acetate, 308.15 K | 0.182
in ethyl acetate, 313.15 K | 0.196
in ethyl acetate, 318.15 K | 0.21
in ethyl acetate, 323.15 K | 0.228
in ethyl acetate, 328.15 K | 0.246
in ethyl acetate, 333.15 K | 0.268
in ethylbenzene, 278.15 K | 0.00564
in ethylbenzene, 283.15 K | 0.00685
in ethylbenzene, 288.15 K | 0.00784
in ethylbenzene, 293.15 K | 0.00969
in ethylbenzene, 298.15 K | 0.0118
in ethylbenzene, 303.15 K | 0.0135
in ethylbenzene, 308.15 K | 0.0163
in ethylbenzene, 313.15 K | 0.0201
in ethylbenzene, 318.15 K | 0.0238
in ethylbenzene, 323.15 K | 0.0284
in ethylbenzene, 328.15 K | 0.0343
in ethylbenzene, 333.15 K | 0.0446
in isobutanol, 278.15 K | 0.000842
in isobutanol, 283.15 K | 0.00108
in isobutanol, 288.15 K | 0.00139
in isobutanol, 293.15 K | 0.00178
in isobutanol, 298.15 K | 0.00229
in isobutanol, 303.15 K | 0.00299
in isobutanol, 308.15 K | 0.00383
in isobutanol, 313.15 K | 0.00492
in isobutanol, 318.15 K | 0.0063
in isobutanol, 323.15 K | 0.00806
in isobutanol, 328.15 K | 0.0102
in isobutanol, 333.15 K | 0.0129
in isopropanol, 278.15 K | 0.000901
in isopropanol, 283.15 K | 0.00119
in isopropanol, 288.15 K | 0.00153
in isopropanol, 293.15 K | 0.00193
in isopropanol, 298.15 K | 0.00252
in isopropanol, 303.15 K | 0.00332
in isopropanol, 308.15 K | 0.00424
in isopropanol, 313.15 K | 0.00535
in isopropanol, 318.15 K | 0.00683
in isopropanol, 323.15 K | 0.00864
in isopropanol, 328.15 K | 0.011
in isopropanol, 333.15 K | 0.0138
in methanol, 278.15 K | 0.00237
in methanol, 283.15 K | 0.00274
in methanol, 288.15 K | 0.00336
in methanol, 293.15 K | 0.0043
in methanol, 298.15 K | 0.00547
in methanol, 303.15 K | 0.00695
in methanol, 308.15 K | 0.00865
in methanol, 313.15 K | 0.011
in methanol, 318.15 K | 0.0136
in methanol, 323.15 K | 0.017
in methanol, 328.15 K | 0.0212
in methanol, 333.15 K | 0.0262
in n-butanol, 278.15 K | 0.00128
in n-butanol, 283.15 K | 0.00147
in n-butanol, 288.15 K | 0.0019
in n-butanol, 293.15 K | 0.00241
in n-butanol, 298.15 K | 0.00306
in n-butanol, 303.15 K | 0.00388
in n-butanol, 308.15 K | 0.00501
in n-butanol, 313.15 K | 0.00643
in n-butanol, 318.15 K | 0.00807
in n-butanol, 323.15 K | 0.0102
in n-butanol, 328.15 K | 0.0129
in n-butanol, 333.15 K | 0.0159
in n-propanol, 278.15 K | 0.00133
in n-propanol, 283.15 K | 0.00165
in n-propanol, 288.15 K | 0.00204
in n-propanol, 293.15 K | 0.0026
in n-propanol, 298.15 K | 0.00332
in n-propanol, 303.15 K | 0.0042
in n-propanol, 308.15 K | 0.00526
in n-propanol, 313.15 K | 0.00673
in n-propanol, 318.15 K | 0.00847
in n-propanol, 323.15 K | 0.0107
in n-propanol, 328.15 K | 0.0135
in n-propanol, 333.15 K | 0.017
in toluene, 278.15 K | 0.00791
in toluene, 283.15 K | 0.00966
in toluene, 288.15 K | 0.0117
in toluene, 293.15 K | 0.0148
in toluene, 298.15 K | 0.0177
in toluene, 303.15 K | 0.0208
in toluene, 308.15 K | 0.0252
in toluene, 313.15 K | 0.0298
in toluene, 318.15 K | 0.0354
in toluene, 323.15 K | 0.0432
in toluene, 328.15 K | 0.053
in toluene, 333.15 K | 0.0657
in water, 278.15 K | 1.5e-05
in water, 283.15 K | 1.94e-05
in water, 288.15 K | 2.48e-05
in water, 293.15 K | 2.98e-05
in water, 298.15 K | 3.55e-05
in water, 303.15 K | 4.27e-05
in water, 308.15 K | 5.2e-05
in water, 313.15 K | 6.4e-05
in water, 318.15 K | 7.89e-05
in water, 323.15 K | 9.63e-05
in water, 328.15 K | 0.000117
in water, 333.15 K | 0.000142
